Data reported in patent publication US20030086869A1, “Methods and kits for diagnosing a pancreatic-based fat malabsorption disorder” (priority 2001, published 2003).

Experiments:
Assay type in all cases: in vivo, human
[1] = Malabsorption Blood Test (MBT): serum levels of PA and HA after oral PA and THA test breakfast meal in healthy control subjects; conditions: for delay before rise in serum concentration: 30 mg/kg PA and 30 mg/kg THA, liquid breakfast shake after 12-hour fast, FIG. 2; for peak serum level: 30 mg/kg PA and either 60 or 90 mg/kg THA oral at baseline; for concentration at 8 h: human, serum, read-out: serum level by eight hours post dose
Experimental: (§1) Both whole post-absorptive serum and isolated chylomicron fractions of the serum are analyzed for fatty acid composition. Chylomicrons are isolated from plasma by centrifugation at d=1.006 g/ml for 30 minutes at 26,000 g (Hatch, F. T., et al., 1968; Adv. Lipid Res., 6:1-68). Total lipids are extracted from each specimen following the method of Bligh and Dyer (Bligh, E. G., et al., 1959; Can. J. Biochem., 37:911-917). Following transmethylation of the lipid extracts using BF3-methanol, fatty acid composition is determined using gas-liquid chromatographic (GLC) analysis using a Hewlett Packard GLC equipped with a flame ionization detector, an automatic 7673 sampler and […]×0.25 mm ID column composed of a 0.20 micron film of SP-2560 (Supelco, Bellefonte, Pa.) (Morrison, W., et al., 1964; J. Lipid Res. 5:600-608). The temperature is programmed to change from 140° C. to 240° C. at a rate of 4° C./minute. At the time of extraction, heptadecanoic methyl ester is added as an internal standard.
Healthy control subjects between 18 and 50 years of age were selected. Exclusion criteria included: any chronic illness known to affect nutrient absorption, body mass index (BMI) <21 or >30 kg/m^2 (generally accepted healthy adult ranges), therapy with lipid lowering drugs, diabetes mellitus (NIDDM and IDDM), disorders associated with altered energy metabolism (e.g., hypothyroidism) and disinterest in participating in all three dosing experiments. This adult age range was selected for several reasons: (a) adult subjects are likely to remain committed to all three components of the study; (b) adults will understand the need to provide reliable feedback on taste and tolerance of the test breakfast meal and the entire malabsorption test procedure; and (c) adult subjects are able to plan the experimental day for full cooperation with the multiple phlebotomy events from 0700 to 1500 hours.
Upon arrival at the study center, subjects had their weight and height measured and an experienced phlebotomist inserted a self-retaining intravenous catheter with a heparin lock for serial blood sampling. After initially drawing 2 milliliters of blood into a sterile syringe, the experimental blood sample (2 milliliters) was drawn and immediately stored in a 4-milliliter serum separator tube. Thereafter, the initial 2 milliliters of blood was infused back into the catheter followed by 2 milliliters of heparin flush. After the baseline blood samples were obtained, the subjects drank an approximately 8 to 12 ounce liquid test breakfast meal. This meal contained one to three doses of PA and THA in a random distribution. Subjects were asked to consume the test breakfast meal within five minutes. Thereafter, serial blood samples were obtained at regular intervals over a period ranging from 30 minutes to 24 hours. During the initial eight-hour period, subjects were permitted to ingest non-caloric and non-caffeinated beverages. A study protocol lunch of known fat content was provided and actual food intake was recorded. Ambulation was limited to maintain adherence to the 30 to 60 minute intervals in the blood sampling schedule. After completion of the blood sampling, the catheter was removed, a snack was offered, and the subjects were encouraged to consume a full meal. The lipid doses (mg/kg) of PA and THA used in this experiment were based on doses 10-fold higher than similar fats used to correct essential fatty acid deficiency in cystic fibrosis, and previous studies which used ^13C […] to qualitatively assess fat malabsorption in pancreatic disease (Rosenlund, M. L., et al., 1977;Pediatrics, 59:428-32; Wutzke, K. D., et al., 1999; J. Pediatr. Gastroenterol. Nutr., 29:148-54).
Four healthy control subjects were administered a dose of 30 mg/kg PA and 30 mg/kg THA in the digestible composition (a liquid breakfast shake) after a 12-hour fast. Blood was drawn at baseline before consumption of the shake and then every 30 minutes thereafter until hour 6. […]

[2] = MBT absorption of PA and HA prior to Orlistat in fifteen healthy subjects; conditions: PA 2.5 grams and THA 8.0 grams, FIG. 10, 11
Excerpt: Fifteen healthy adult subject volunteers (9 women) 18 to 50 years of age were recruited through local advertisements. Exclusion criteria included: any chronic illness known to affect nutrient absorption, body mass index (BMI) of less than 21 or greater than 30 kg/m^2 (i.e., outside of generally accepted healthy adult ranges), therapy with lipid lowering drugs, diabetes mellitus (NIDDM, IDDM) and disorders associated with altered energy metabolism (e.g., hypothyroidism). This adult age range was selected because Orlistat is FDA approved in adults. In addition, adults are able to plan the experimental days for cooperation with four days of the research study diet, outpatient 72-hour stool collection and phlebotomy requirements. […]
Subjects underwent a 12-hour fast from 2100 hours on day #1 of the study. […] Upon arrival at the study center on the morning of day #2, subjects had their weight and height measured, and an experienced phlebotomist inserted a self-retaining intravenous catheter with a heparin lock for serial blood sampling. […] The number and timing of blood samples was determined by the experiments in Example 1, and was expected to be six or fewer samples over an eight-hour or less time period. […]

[3] = MBT serum levels of PA and HA in subjects with CF and pancreatic insufficiency on and off pancreatic enzymes; conditions: for serum levels compared with healthy control subjects: subjects with CF taking pancreatic enzymes
Experimental: as §1
Subjects with CF and pancreatic insufficiency currently treated with pancreatic enzymes, aged greater than 8 years were recruited. Exclusion criteria included: forced expiratory volume of the lungs at 1 second (FEV1) <40%, a history of fibrosing colonopathy or significant bowel resection (>10 cm), mental retardation, significant neurological deficit, developmental disability and autism. Subjects are in their usual state of good health. This age range was selected because it includes children during active growth where information regarding degree of malabsorption leads to improved nutritional intervention and pancreatic enzyme therapy. Also, children greater than 8 years of age are mature enough to provide assent and feedback concerning acceptability and tolerance of the MBT.
In the experiments shown in FIGS. 12 through 15, three subjects with CF were given either 30 mg/kg PA and 60 mg/kg THA (2 subjects) or 30 mg/kg PA and 90 mg/kg THA (1 subject) in a digestible composition consisting of a liquid breakfast shake after a 12 hour fast. The subjects were tested while they were taking their usual doses of pancreatic enzymes and then were tested again (more than one week later) when they were not taking pancreatic enzymes. Blood was sampled at baseline and then at hourly intervals from 2 to 8 hours and then sampled again at 24 hours. Subjects were fed a prepared lunchtime meal with a known quantity of fat (80 grams). The individual results for fat absorption for the 3 subjects with CF on enzymes are presented in FIG. 12 for PA and FIG. 13 for HA. For the same 3 subjects with CF off enzymes, the results for fat absorption are presented in FIG. 14 for PA and FIG. 15 for HA.
Additional experiments were performed on six subjects with CF either on or off pancreatic enzyme treatment. The serum levels of PA and HA in these six subjects on and off pancreatic enzyme treatment are presented in FIG. 16 anf FIG. 17, respectively.

[4] = four healthy control subjects, 30 mg/kg PA and 60 mg/kg THA, FIG. 3A, 4, 5A
[5] = four healthy control subjects, 30 mg/kg PA and 90 mg/kg THA, FIG. 6-8
[6] = four healthy control subjects, FIG. 1 model
[7] = four healthy control subjects, 30 mg/kg PA and either 60 or 90 mg/kg THA oral, FIG. 1 model
[8] = subjects with CF off pancreatic enzymes
[9] = subjects with CF on pancreatic enzymes

## CCCCCCCCCCCCCCCCC(=O)O [HA, heptadecanoic acid]
[1]; four healthy control subjects
  delay before rise in serum concentration: 3 to 4 h
[1]; [4]
  time at which increase in serum level is evident / begins: 3 h
  time of peak serum level: 6 h
[1]; [5]
  time of peak serum level: 6 h
[1]; [6]
  peak serum level: approximately 3 mg/dL
[1]; [7]
  time of peak serum level: 6 h
  time post-dose before serum level rises: two
  concentration at 8 h: ~10000 ng/mL
[1]; six healthy volunteers, PA 2.5 grams and THA 5.0 or 8.0 grams, FIG. 5B
  time up to which serum response continued to increase (sharp decrease after): 6 h
[2]
  average absorption: approximately 45%
[3]; [8]
  serum level response: no increase in serum levels
[3]; [9]
  delay before serum levels increased: 2 h
  time of peak serum level: approximately 6 hours
[3]
  serum levels compared with healthy control subjects: lower

## CCCCCCCCCCCCCCC(=O)O [PA, pentadecanoic acid]
[1]; four healthy control subjects
  delay before rise in serum concentration: approximately half
[1]; [4]
  time at which increase in serum level is evident / begins: ≤ 2 h
  time of peak serum level: 6 h
[1]; [5]
  time at which increase in serum level is evident: ≤ 2 h
  time of peak serum level: 6 h
[1]; [6]
  peak serum level: approximately 4 mg/dL
[1]; [7]
  time of peak serum level: six
  concentration at 8 h: ~10000 ng/mL
[1]; six healthy volunteers, PA 2.5 grams and THA 5.0 or 8.0 grams, FIG. 3B
  pattern of serum response: increasing over the first two hours and remaining elevated through hour six
[2]
  average absorption: approximately 65%
[3]; [8]
  hour by which serum levels increased: ≤ 2 h
[3]; [9]
  hour by which increase in absorption was evident: ≤ 2 h
[3]
  serum levels compared with healthy control subjects: lower
